{"source": "ChEMBL document CHEMBL5375956", "about": "“Discovery of Pyrazolo[1,5-a]pyrimidine Derivative as a Novel and Selective ALKBH5 Inhibitor for the Treatment of AML” (J Med Chem, 2023)", "key": {"[1]": {"target": "Alpha-ketoglutarate-dependent dioxygenase FTO (Homo sapiens, UniProt Q9C0B1)", "sequence (Q9C0B1 whole entry, the tested form may be a part)": "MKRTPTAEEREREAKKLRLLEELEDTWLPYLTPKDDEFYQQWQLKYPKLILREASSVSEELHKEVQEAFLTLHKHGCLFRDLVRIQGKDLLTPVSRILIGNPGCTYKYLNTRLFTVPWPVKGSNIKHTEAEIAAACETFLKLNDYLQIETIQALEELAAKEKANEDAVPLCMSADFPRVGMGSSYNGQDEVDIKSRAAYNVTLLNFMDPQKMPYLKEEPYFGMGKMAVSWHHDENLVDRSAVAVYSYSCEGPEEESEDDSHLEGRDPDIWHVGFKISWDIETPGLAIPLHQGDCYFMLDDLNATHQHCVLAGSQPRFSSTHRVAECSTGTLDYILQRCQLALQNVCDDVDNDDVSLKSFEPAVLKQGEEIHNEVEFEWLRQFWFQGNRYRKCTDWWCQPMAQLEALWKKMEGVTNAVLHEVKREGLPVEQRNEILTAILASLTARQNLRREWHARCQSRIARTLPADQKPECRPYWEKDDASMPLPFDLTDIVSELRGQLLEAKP", "test": "Inhibition of FTO (32 to 505 residues)(unknown origin) expressed in Escherichia coli BL21(DE3) by FP assay"}, "RNA demethylase ALKBH5 [2]": {"target": "T1, RNA demethylase ALKBH5 (Homo sapiens, UniProt Q6P6C2)", "test": "Binding affinity to NT-647-NHS fluorescent dye-labeled wild-type ALKBH5 (66 to 292 residues)(unknown origin) expressed in Escherichia coli BL21(DE3) using m6A-ssDNA as substrate assessed as dissociation constant incubated for 15 mins by MST assay"}, "RNA demethylase ALKBH5 [3]": {"target": "RNA demethylase ALKBH5 (Homo sapiens, UniProt Q6P6C2, R130A)", "sequence (Q6P6C2 2-394 R130A limits assumed)": "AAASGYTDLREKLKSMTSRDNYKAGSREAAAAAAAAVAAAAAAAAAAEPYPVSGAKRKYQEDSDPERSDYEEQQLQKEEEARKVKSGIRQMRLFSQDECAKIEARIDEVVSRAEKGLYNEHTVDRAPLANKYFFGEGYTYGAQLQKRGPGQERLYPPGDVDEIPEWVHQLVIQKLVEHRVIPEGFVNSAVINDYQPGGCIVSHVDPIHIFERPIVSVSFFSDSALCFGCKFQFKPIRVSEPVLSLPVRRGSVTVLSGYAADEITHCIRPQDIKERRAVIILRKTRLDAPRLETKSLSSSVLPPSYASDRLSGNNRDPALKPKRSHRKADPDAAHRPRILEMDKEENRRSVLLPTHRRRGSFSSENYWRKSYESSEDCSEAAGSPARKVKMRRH", "test": "Binding affinity to NT-647-NHS fluorescent dye-labeled ALKBH5 R130A mutant (unknown origin) expressed in Escherichia coli BL21(DE3) using m6A-ssDNA as substrate assessed as dissociation constant incubated for 15 mins by MST assay"}, "RNA demethylase ALKBH5 [4]": {"target": "RNA demethylase ALKBH5 (Homo sapiens, UniProt Q6P6C2, K132A)", "sequence (Q6P6C2 2-394 K132A limits assumed)": "as the sequence (Q6P6C2 2-394 R130A limits assumed) above, with A129R, K131A counted along it", "test": "Binding affinity to NT-647-NHS fluorescent dye-labeled ALKBH5 K132A mutant (unknown origin) expressed in Escherichia coli BL21(DE3) using m6A-ssDNA as substrate assessed as dissociation constant incubated for 15 mins by MST assay"}, "RNA demethylase ALKBH5 [5]": {"target": "RNA demethylase ALKBH5 (Homo sapiens, UniProt Q6P6C2, Y139A)", "sequence (Q6P6C2 2-394 Y139A limits assumed)": "as the sequence (Q6P6C2 2-394 R130A limits assumed) above, with A129R, Y138A counted along it", "test": "Binding affinity to NT-647-NHS fluorescent dye-labeled ALKBH5 Y139A mutant (unknown origin) expressed in Escherichia coli BL21(DE3) using m6A-ssDNA as substrate assessed as dissociation constant incubated for 15 mins by MST assay"}, "RNA demethylase ALKBH5 [6]": {"target": "T1, RNA demethylase ALKBH5", "test": "Inhibition of ALKBH5 (66 to 292 residues)(unknown origin) expressed in Escherichia coli BL21(DE3) using 5'-ATTGTCA(m6A)CAGCAGA-FAM-3' as substrate incubated for 30 mins in presence of 200 uM of 2-OG by FP based competitive binding assay"}, "RNA demethylase ALKBH5 [7]": {"target": "T1, RNA demethylase ALKBH5", "test": "Inhibition of ALKBH5 (66 to 292 residues)(unknown origin) expressed in Escherichia coli BL21(DE3) using 5'-ATTGTCA(m6A)CAGCAGA-FAM-3' as substrate incubated for 30 mins in presence of 20 uM of 2-OG by FP based competitive binding assay"}, "[8]": {"target": "T2, Alpha-ketoglutarate-dependent dioxygenase alkB homolog 3 (Homo sapiens) (UniProt Q96Q83)", "T2 sequence (whole entry)": "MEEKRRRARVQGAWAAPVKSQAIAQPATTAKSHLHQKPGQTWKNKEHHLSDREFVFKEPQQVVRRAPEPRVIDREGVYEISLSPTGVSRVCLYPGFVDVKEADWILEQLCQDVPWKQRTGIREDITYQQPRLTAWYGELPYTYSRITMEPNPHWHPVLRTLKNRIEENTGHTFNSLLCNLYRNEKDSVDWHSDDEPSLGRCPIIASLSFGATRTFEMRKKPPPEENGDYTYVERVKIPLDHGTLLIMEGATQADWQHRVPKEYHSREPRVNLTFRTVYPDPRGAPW", "test": "Inhibition of ALKBH3 (62 to 286 residues)(unknown origin) expressed in Escherichia coli BL21(DE3) using 5'-TAGACATTGCCATTCTCGATAGG(m6A)-TCCGGTCAAACCTAGACGAATTCCA-3' as substrate at 100 uM incubated for 2 hrs by restriction endonuclease digestion assay"}, "RNA demethylase ALKBH5 [9]": {"target": "T1, RNA demethylase ALKBH5", "test": "Inhibition of ALKBH5 (66 to 292 residues)(unknown origin) expressed in Escherichia coli BL21(DE3) using 5'-TAGACATTGCCATTCTCGATAGG(m6A)-TCCGGTCAAACCTAGACGAATTCCA-3' as substrate upto 100 uM incubated for 2 hrs in presence of 2-OG by restriction endonuclease digestion assay"}, "MOLM-13 [10]": {"tested_on": "MOLM-13", "test": "Induction of apoptosis in human MOLM-13 cells assessed as viable cells at 10 uM incubated for 48 hrs by Annexin V-FITC/PI staining based flow cytometry (reference value: 89.8 %)", "assay_type": "functional", "conditions": "read-out: Activity"}, "MOLM-13 [11]": {"tested_on": "MOLM-13", "test": "Downregulation of TACC3 mRNA level in human MOLM-13 cells assessed as half life of expression at 20 umol/L incubated for 24 hrs by qRT-PCR analysis (reference value: 2.87 hrs)", "assay_type": "functional, cell-based", "conditions": "dose 20.0 µmol/L"}, "HUVEC": {"tested_on": "HUVEC", "test": "Effect on c-Myc mRNA level in HUVEC cells at 5 to 10 uM incubated for 48 hrs by qRT-PCR analysis", "assay_type": "functional, cell-based", "conditions": "Homo sapiens, dose 5-10 µM"}, "[12]": {"test": "Metabolic stability in human liver microsomes assessed as half life measured upto 240 mins by LC-MS/MS analysis", "assay_type": "ADME, Microsome"}, "[13]": {"test": "Metabolic stability in human liver microsomes assessed as clearance measured upto 240 mins by LC-MS/MS analysis", "assay_type": "ADME, Microsome", "conditions": "read-out: CLH"}, "[14]": {"test": "Cmax in Sprague-Dawley rat at 2 mg/kg, iv measured for 1 to 1440 mins by LC-MS/MS analysis", "assay_type": "ADME, organism-based", "conditions": "in vivo"}, "[15]": {"test": "Apparent volume of distribution during terminal phase in Sprague-Dawley rat at 2 mg/kg, iv measured for 1 to 1440 mins by LC-MS/MS analysis", "assay_type": "ADME, organism-based", "conditions": "in vivo, time 1-1440 min"}, "[16]": {"test": "Cmax in Sprague-Dawley rat at 10 mg/kg, po measured for 1 to 1440 mins by LC-MS/MS analysis", "assay_type": "ADME, organism-based", "conditions": "in vivo"}, "[17]": {"test": "AUC (0 to infinity) in Sprague-Dawley rat at 10 mg/kg, po measured for 1 to 1440 mins by LC-MS/MS analysis", "assay_type": "ADME, organism-based", "conditions": "in vivo"}, "[18]": {"test": "Apparent volume of distribution during terminal phase in Sprague-Dawley rat at 10 mg/kg, po measured for 1 to 1440 mins by LC-MS/MS analysis", "assay_type": "ADME, organism-based", "conditions": "in vivo, time 1-1440 min, read-out: Vz/F"}, "[19]": {"test": "MRT in Sprague-Dawley rat at 10 mg/kg, po measured for 1 to 1440 mins by LC-MS/MS analysis", "assay_type": "ADME, organism-based", "conditions": "in vivo, time 1-1440 min"}, "[20]": {"test": "Toxicity in nude mouse xenografted with human MV4-11 cells assessed as body weight change at 10 to 40 mg/kg, ip treated every day for 14 days", "assay_type": "organism-based", "conditions": "in vivo, 336 h, dose 10-40 mg/kg, time 14 day"}, "[21]": {"test": "Toxicity in nude mouse xenografted with human MV4-11 cells assessed as liver weight change at 10 to 40 mg/kg, ip treated every day for 14 days", "assay_type": "organism-based", "conditions": "in vivo, 336 h, dose 10-40 mg/kg, time 14 day"}, "[22]": {"test": "Toxicity in nude mouse xenografted with human MV4-11 cells assessed as heart damage at 10 to 40 mg/kg, ip treated every day for 14 days by H and E staining based analysis", "assay_type": "organism-based", "conditions": "in vivo, 336 h, dose 10-40 mg/kg, time 14 day"}, "[23]": {"test": "Toxicity in nude mouse xenografted with human MV4-11 cells assessed as liver damage at 10 to 40 mg/kg, ip treated every day for 14 days by H and E staining based analysis", "assay_type": "organism-based", "conditions": "in vivo, 336 h, dose 10-40 mg/kg, time 14 day"}, "[24]": {"test": "Toxicity in nude mouse xenografted with human MV4-11 cells assessed as spleen damage at 10 to 40 mg/kg, ip treated every day for 14 days by H and E staining based analysis", "assay_type": "organism-based", "conditions": "in vivo, 336 h, dose 10-40 mg/kg, time 14 day"}, "[25]": {"test": "Toxicity in nude mouse xenografted with human MV4-11 cells assessed as lung damage at 10 to 40 mg/kg, ip treated every day for 14 days by H and E staining based analysis", "assay_type": "organism-based", "conditions": "in vivo, 336 h, dose 10-40 mg/kg, time 14 day"}}, "note": "Calls of active or inactive are those of the source. The calls are words filed in the database; no cut-off is given here."}
{"compound": "O=C(OCc1ccc(C(F)(F)F)cc1)c1ccc(-c2cc3ncc(C(=O)c4c(O)ccc([N+](=O)[O-])c4O)cn3n2)cc1", "values": [{"measurement": "IC50", "setting": "[1]", "result": "> 200", "unit": "µM"}, {"measurement": "Kd", "setting": "RNA demethylase ALKBH5 [2]", "result": 11.2, "unit": "µM"}, {"measurement": "Kd", "setting": "RNA demethylase ALKBH5 [3]", "result": 373, "unit": "µM"}, {"measurement": "Kd", "setting": "RNA demethylase ALKBH5 [4]", "result": 53, "unit": "µM"}, {"measurement": "Kd", "setting": "RNA demethylase ALKBH5 [5]", "result": 290, "unit": "µM"}, {"measurement": "IC50", "setting": "RNA demethylase ALKBH5 [6]", "result": 4.46, "unit": "µM"}, {"measurement": "IC50", "setting": "RNA demethylase ALKBH5 [7]", "result": 4.32, "unit": "µM"}, {"measurement": "inhibition", "setting": "[8]", "result": "inactive"}, {"measurement": "inhibition", "setting": "RNA demethylase ALKBH5 [9]", "result": "Active"}, {"measurement": "viability at 10 µM", "setting": "MOLM-13 [10]", "result": 61.5, "unit": "%"}, {"measurement": "T1/2", "setting": "MOLM-13 [11]", "result": 2.06, "unit": "h"}, {"measurement": "Activity", "setting": "HUVEC", "result": "inactive"}, {"measurement": "half-life", "setting": "[12]", "result": 7.17, "unit": "h"}, {"measurement": "microsomal CLint", "setting": "[13]", "result": 3.2, "unit": "µL/min/mg"}, {"measurement": "Cmax", "setting": "[14]", "result": 13400, "unit": "ng/mL"}, {"measurement": "Vz/F", "setting": "[15]", "result": 0.2636, "unit": "L/kg"}, {"measurement": "Cmax", "setting": "[16]", "result": 2340, "unit": "ng/mL"}, {"measurement": "AUC(0-inf)", "setting": "[17]", "result": 5820, "unit": "ng·h/mL"}, {"measurement": "Vd/F", "setting": "[18]", "result": 6.18, "unit": "L/kg"}, {"measurement": "MRT", "setting": "[19]", "result": 2.8, "unit": "h"}, {"measurement": "Activity", "setting": "[20]", "result": "Non-Toxic"}, {"measurement": "Activity", "setting": "[21]", "result": "Non-Toxic"}, {"measurement": "Activity", "setting": "[22]", "result": "Non-Toxic"}, {"measurement": "Activity", "setting": "[23]", "result": "Non-Toxic"}, {"measurement": "Activity", "setting": "[24]", "result": "Non-Toxic"}, {"measurement": "Activity", "setting": "[25]", "result": "Non-Toxic"}]}
